# Assays:
# NCI-H1975 [1] = experiment: Induction of apoptosis in human NCI-H1975 cells assessed as early apoptotic cells at 50 nM incubated for 24 hrs by propidium iodide and annexin-V FITC staining based flow cytometry (reference value: 0.94 %); format: functional
# NCI-H1975 [2] = experiment: Induction of apoptosis in human NCI-H1975 cells assessed as early apoptotic cells at 5 nM incubated for 48 hrs by propidium iodide and annexin-V FITC staining based flow cytometry (reference value: 0.95 %); format: functional
# NCI-H1975 [3] = experiment: Induction of apoptosis in human NCI-H1975 cells assessed as viable cells at 50 nM incubated for 24 hrs by propidium iodide and annexin-V FITC staining based flow cytometry (reference value: 98.82 %); format: functional; conditions: NCI-H1975, 24 h, read-out: Activity
# NCI-H1975 [4] = experiment: Induction of apoptosis in human NCI-H1975 cells assessed as necrotic cells at 50 nM incubated for 72 hrs by propidium iodide and annexin-V FITC staining based flow cytometry (reference value: 0.01 %); format: functional
# NCI-H1975 [5] = experiment: Induction of apoptosis in human NCI-H1975 cells assessed as late apoptotic cells at 50 nM incubated for 72 hrs by propidium iodide and annexin-V FITC staining based flow cytometry (reference value: 0.01 %); format: functional
# NCI-H1975 [6] = experiment: Induction of apoptosis in human NCI-H1975 cells assessed as viable cells at 50 nM incubated for 48 hrs by propidium iodide and annexin-V FITC staining based flow cytometry (reference value: 99.05 %); format: functional; conditions: NCI-H1975, 48 h, read-out: Activity
# [7] = Tmax in ICR mouse at 5 mg/kg, iv; format: ADME, organism-based; conditions: in vivo
# NCI-H1975 [8] = experiment: Inhibition of cell migration in human NCI-H1975 cells at 50 nM incubated for 24 hrs by phase contrast microscopy relative to control; format: functional; conditions: NCI-H1975, 24 h
# NCI-H1975 [9] = experiment: Induction of apoptosis in human NCI-H1975 cells assessed as early apoptotic cells at 50 nM incubated for 48 hrs by propidium iodide and annexin-V FITC staining based flow cytometry (reference value: 0.95 %); format: functional
# NCI-H1975 [10] = experiment: Inhibition of cell migration in human NCI-H1975 cells at 25 nM incubated for 24 hrs by phase contrast microscopy relative to control; format: functional; conditions: Homo sapiens, NCI-H1975, 24 h
# NCI-H1975 [11] = experiment: Induction of apoptosis in human NCI-H1975 cells assessed as necrotic cells at 25 nM incubated for 48 hrs by propidium iodide and annexin-V FITC staining based flow cytometry (reference value: 0.01 %); format: functional
# [12] = MRT (0 to t) in ICR mouse at 10 mg/kg, po; format: ADME, organism-based; conditions: in vivo
# NCI-H1975 [13] = experiment: Induction of apoptosis in human NCI-H1975 cells assessed as late apoptotic cells at 25 nM incubated for 48 hrs by propidium iodide and annexin-V FITC staining based flow cytometry (reference value: 0.23 %); format: functional
# NCI-H1975 [14] = experiment: Induction of apoptosis in human NCI-H1975 cells assessed as late apoptotic cells at 25 nM incubated for 24 hrs by propidium iodide and annexin-V FITC staining based flow cytometry (reference value: 0.23 %); format: functional
# NCI-H1975 [15] = experiment: Induction of apoptosis in human NCI-H1975 cells assessed as early apoptotic cells at 25 nM incubated for 48 hrs by propidium iodide and annexin-V FITC staining based flow cytometry (reference value: 0.95 %); format: functional
# [16] = Tmax in ICR mouse at 10 mg/kg, po; format: ADME, organism-based; conditions: in vivo
# [17] = Cmax in ICR mouse at 10 mg/kg, po; format: ADME, organism-based; parameters: dose 10 mg/kg, route oral; conditions: in vivo
# NCI-H1975 [18] = experiment: Induction of apoptosis in human NCI-H1975 cells assessed as viable cells at 25 nM incubated for 48 hrs by propidium iodide and annexin-V FITC staining based flow cytometry (reference value: 99.05 %); format: functional; conditions: NCI-H1975, 48 h, read-out: Activity
# [19] = molecular target: Epidermal growth factor receptor (Homo sapiens, UniProt P00533, L858R); experiment: Inhibition of recombinant human GST-tagged EGFR L858R mutant expressed in baculovirus expression system using Tyr 04 as substrate incubated for 1 hr by Z'-LYTE assay
# Chain of Epidermal growth factor receptor (Homo sapiens, UniProt P00533, L858R) (P00533 25-1210 L858R limits assumed): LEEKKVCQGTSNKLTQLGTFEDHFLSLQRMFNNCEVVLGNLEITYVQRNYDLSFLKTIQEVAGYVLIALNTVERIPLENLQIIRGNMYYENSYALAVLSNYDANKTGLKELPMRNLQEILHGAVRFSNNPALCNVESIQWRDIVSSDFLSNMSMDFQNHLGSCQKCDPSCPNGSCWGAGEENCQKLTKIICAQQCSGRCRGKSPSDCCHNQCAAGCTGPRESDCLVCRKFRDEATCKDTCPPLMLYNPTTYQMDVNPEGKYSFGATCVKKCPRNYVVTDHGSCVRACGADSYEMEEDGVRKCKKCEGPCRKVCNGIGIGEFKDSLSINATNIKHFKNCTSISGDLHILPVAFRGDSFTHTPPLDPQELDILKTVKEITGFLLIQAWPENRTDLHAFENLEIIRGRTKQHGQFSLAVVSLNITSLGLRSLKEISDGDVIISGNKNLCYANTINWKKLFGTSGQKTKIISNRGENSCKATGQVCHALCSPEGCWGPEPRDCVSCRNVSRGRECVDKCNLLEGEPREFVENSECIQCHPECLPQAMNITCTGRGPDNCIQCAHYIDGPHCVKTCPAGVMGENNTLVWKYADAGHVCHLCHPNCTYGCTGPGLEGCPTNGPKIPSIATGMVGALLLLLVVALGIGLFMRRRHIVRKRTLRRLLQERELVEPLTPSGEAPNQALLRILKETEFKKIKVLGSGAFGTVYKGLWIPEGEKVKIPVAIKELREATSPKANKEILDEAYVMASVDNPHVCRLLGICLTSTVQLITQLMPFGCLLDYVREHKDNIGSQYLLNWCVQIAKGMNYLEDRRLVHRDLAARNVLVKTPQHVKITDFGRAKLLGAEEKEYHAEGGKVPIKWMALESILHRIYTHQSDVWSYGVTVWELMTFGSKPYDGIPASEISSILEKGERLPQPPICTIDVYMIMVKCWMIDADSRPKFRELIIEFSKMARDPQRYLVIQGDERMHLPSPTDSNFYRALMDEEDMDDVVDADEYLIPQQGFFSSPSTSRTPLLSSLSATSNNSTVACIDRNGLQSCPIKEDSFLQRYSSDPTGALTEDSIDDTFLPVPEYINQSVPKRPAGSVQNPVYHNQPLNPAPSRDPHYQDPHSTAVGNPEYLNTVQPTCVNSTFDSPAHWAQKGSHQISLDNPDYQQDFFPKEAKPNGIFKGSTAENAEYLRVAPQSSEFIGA
# NCI-H1975 [20] = experiment: Induction of apoptosis in human NCI-H1975 cells assessed as late apoptotic cells at 50 nM incubated for 48 hrs by propidium iodide and annexin-V FITC staining based flow cytometry (reference value: 0.23 %); format: functional
# [21] = Half life in ICR mouse at 5 mg/kg, iv; format: ADME, organism-based; conditions: in vivo
# NCI-H1975 [22] = experiment: Induction of apoptosis in human NCI-H1975 cells assessed as viable cells at 25 nM incubated for 24 hrs by propidium iodide and annexin-V FITC staining based flow cytometry (reference value: 98.82 %); format: functional; conditions: NCI-H1975, 24 h, read-out: Activity
# [23] = Clearance in ICR mouse at 5 mg/kg, iv; format: ADME, organism-based; conditions: in vivo
# [24] = MRT (0 to t) in ICR mouse at 5 mg/kg, iv; format: ADME, organism-based; conditions: in vivo
# [25] = AUC (0 to infinity) in ICR mouse at 10 mg/kg, po; format: ADME, organism-based; parameters: dose 10 mg/kg, route oral, time infinity; conditions: in vivo
# [26] = Selectivity index, ratio of IC50 for human HK2 cells to IC50 for human NCI-H1975 cells expressing EGFR T790M/L858R mutant
# [27] = MRT (0 to infinity) in ICR mouse at 5 mg/kg, iv; format: ADME, organism-based; conditions: in vivo
# NCI-H1975 [28] = experiment: Induction of apoptosis in human NCI-H1975 cells assessed as viable cells at 25 nM incubated for 72 hrs by propidium iodide and annexin-V FITC staining based flow cytometry (reference value: 97.55 %); format: functional; conditions: NCI-H1975, 72 h, read-out: Activity
# [29] = AUC (0 to t) in ICR mouse at 10 mg/kg, po; format: ADME, organism-based; conditions: in vivo
# [30] = molecular target: T1, Epidermal growth factor receptor (Homo sapiens, UniProt P00533, L858R/T790M); experiment: Inhibition of EGFR T790M/L858R mutant in human NCI-H1975 cells assessed as reduction in EGFR Y1068 phosphorylation incubated for 4 hrs by Western blot analysis; format: cell-based
# Target sequence in this assay (P00533 whole entry T790M/L858R, looked up): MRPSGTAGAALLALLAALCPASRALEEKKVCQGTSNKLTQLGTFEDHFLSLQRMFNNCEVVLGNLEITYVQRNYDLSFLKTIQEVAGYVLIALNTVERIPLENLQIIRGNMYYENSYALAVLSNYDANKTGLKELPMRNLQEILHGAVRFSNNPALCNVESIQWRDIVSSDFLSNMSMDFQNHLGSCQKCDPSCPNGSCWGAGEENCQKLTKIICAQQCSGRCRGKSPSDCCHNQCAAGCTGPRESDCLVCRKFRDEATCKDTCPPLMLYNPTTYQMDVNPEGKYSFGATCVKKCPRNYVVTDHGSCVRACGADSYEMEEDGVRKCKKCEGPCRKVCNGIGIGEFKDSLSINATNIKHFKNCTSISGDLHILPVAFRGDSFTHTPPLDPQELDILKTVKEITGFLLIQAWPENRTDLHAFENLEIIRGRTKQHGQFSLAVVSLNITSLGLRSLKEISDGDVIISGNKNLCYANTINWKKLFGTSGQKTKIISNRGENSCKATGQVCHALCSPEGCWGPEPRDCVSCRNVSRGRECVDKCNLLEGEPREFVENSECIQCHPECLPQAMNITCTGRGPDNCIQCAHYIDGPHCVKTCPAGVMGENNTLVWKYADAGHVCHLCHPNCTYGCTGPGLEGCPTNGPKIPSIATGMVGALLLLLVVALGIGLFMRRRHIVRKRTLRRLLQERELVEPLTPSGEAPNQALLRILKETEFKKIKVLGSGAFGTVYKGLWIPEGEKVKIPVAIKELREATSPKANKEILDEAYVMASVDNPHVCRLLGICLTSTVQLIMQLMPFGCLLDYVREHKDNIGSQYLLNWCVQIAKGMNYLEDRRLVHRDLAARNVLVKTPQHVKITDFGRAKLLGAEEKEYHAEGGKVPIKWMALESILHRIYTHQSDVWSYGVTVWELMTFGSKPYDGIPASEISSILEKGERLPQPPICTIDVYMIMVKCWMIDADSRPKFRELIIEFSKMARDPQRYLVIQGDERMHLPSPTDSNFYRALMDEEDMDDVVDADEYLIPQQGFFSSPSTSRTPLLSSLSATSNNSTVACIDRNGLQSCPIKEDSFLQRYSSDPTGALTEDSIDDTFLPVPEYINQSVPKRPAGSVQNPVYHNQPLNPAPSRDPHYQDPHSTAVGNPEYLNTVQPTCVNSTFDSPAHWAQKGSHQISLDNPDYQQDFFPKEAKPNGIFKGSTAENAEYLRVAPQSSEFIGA
# [31] = Cmax in ICR mouse at 5 mg/kg, iv; format: ADME, organism-based; parameters: dose 5 mg/kg, route intravenous; conditions: in vivo
# NCI-H1975 [32] = experiment: Induction of apoptosis in human NCI-H1975 cells assessed as early apoptotic cells at 50 nM incubated for 72 hrs by propidium iodide and annexin-V FITC staining based flow cytometry (reference value: 2.43 %); format: functional
# [33] = molecular target: T1, Epidermal growth factor receptor; experiment: Inhibition of recombinant human GST-tagged EGFR T790M/L858R mutant expressed in baculovirus expression system using Tyr 04 as substrate incubated for 1 hr by Z'-LYTE assay
# Target sequence in this assay (P00533 25-1210 T790M/L858R limits assumed): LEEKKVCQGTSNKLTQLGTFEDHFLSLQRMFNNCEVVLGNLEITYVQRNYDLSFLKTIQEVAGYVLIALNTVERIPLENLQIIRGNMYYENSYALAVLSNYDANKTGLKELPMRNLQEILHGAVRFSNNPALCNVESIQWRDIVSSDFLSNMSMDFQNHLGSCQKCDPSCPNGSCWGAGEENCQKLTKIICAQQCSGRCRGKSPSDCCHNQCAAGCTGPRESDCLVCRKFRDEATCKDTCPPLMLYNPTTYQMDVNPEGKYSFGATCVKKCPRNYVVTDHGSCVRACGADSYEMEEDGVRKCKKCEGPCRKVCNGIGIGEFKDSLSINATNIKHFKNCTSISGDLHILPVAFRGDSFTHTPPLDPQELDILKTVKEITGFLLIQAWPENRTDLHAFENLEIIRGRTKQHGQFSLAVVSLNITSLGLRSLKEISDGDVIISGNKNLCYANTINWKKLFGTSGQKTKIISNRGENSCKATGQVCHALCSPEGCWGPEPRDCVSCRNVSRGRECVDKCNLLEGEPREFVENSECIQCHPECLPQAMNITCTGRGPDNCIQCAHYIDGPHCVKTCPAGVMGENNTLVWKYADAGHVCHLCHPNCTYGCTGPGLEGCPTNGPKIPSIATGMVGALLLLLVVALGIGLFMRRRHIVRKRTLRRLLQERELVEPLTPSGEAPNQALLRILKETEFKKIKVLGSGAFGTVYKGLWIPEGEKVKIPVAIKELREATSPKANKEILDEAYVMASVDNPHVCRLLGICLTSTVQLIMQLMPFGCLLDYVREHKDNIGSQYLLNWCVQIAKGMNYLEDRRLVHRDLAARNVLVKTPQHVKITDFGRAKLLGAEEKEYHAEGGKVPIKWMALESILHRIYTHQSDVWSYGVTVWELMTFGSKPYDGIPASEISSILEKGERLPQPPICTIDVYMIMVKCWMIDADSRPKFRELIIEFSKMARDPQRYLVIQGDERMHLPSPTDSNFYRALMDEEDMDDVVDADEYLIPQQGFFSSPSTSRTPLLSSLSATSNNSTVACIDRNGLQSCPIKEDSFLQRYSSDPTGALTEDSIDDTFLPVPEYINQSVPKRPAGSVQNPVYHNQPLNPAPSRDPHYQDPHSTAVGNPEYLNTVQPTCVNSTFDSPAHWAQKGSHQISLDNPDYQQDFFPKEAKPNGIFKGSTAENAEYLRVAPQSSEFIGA
# NCI-H1975 [34] = experiment: Induction of apoptosis in human NCI-H1975 cells assessed as early apoptotic cells at 25 nM incubated for 24 hrs by propidium iodide and annexin-V FITC staining based flow cytometry (reference value: 0.94 %); format: functional
# [35] = Selectivity index, ratio of IC50 for human LO2 cells to IC50 for human NCI-H1975 cells expressing EGFR T790M/L858R mutant; format: toxicity
# NCI-H1975 [36] = experiment: Induction of apoptosis in human NCI-H1975 cells assessed as viable cells at 50 nM incubated for 72 hrs by propidium iodide and annexin-V FITC staining based flow cytometry (reference value: 97.55 %); format: functional; conditions: NCI-H1975, 72 h, read-out: Activity
# NCI-H1975 [37] = experiment: Induction of apoptosis in human NCI-H1975 cells assessed as late apoptotic cells at 5 nM incubated for 72 hrs by propidium iodide and annexin-V FITC staining based flow cytometry (reference value: 0.01 %); format: functional
structure (smiles),measurement,setting,value
"C=CC(=O)Nc1cc(Nc2nccc(-c3cn(C)c4ccccc34)n2)c(OC)cc1[S+]([O-])CCN(C)C (single isomer, unassigned; (-))",Activity,NCI-H1975 [1],31.61%
same,Activity,NCI-H1975 [2],22.89%
same,viability at 0.05 µM,NCI-H1975 [3],65.6%
same,Activity,NCI-H1975 [4],1.84%
same,Activity,NCI-H1975 [5],30.74%
same,viability at 0.05 µM,NCI-H1975 [6],13.7%
same,Tmax,[7],4.8 min
same,inhibition at 0.05 µM,NCI-H1975 [8],87.6%
same,Activity,NCI-H1975 [9],56.02%
same,inhibition at 0.025 µM,NCI-H1975 [10],69.7%
same,Activity,NCI-H1975 [11],0.69%
same,MRT last,[12],2.32 h
same,Activity,NCI-H1975 [13],2.73%
same,Activity,NCI-H1975 [14],0.86%
same,Activity,NCI-H1975 [15],51.86%
same,Tmax,[16],0.5 h
same,Cmax,[17],0.695 µg/mL
same,viability at 0.025 µM,NCI-H1975 [18],44.7%
same,IC50,[19],4 nM
same,Activity,NCI-H1975 [20],29.59%
same,half-life,[21],1.12 h
same,viability at 0.025 µM,NCI-H1975 [22],76.8%
same,clearance,[23],3.84 L/h/kg
same,MRT last,[24],1.15 h
same,AUC(0-inf),[25],2 µg·h/mL
same,Ratio IC50,[26],>1000
same,MRT inf,[27],1.21 h
same,viability at 0.025 µM,NCI-H1975 [28],35.2%
same,AUC(0-t),[29],1.91 µg·h/mL
same,EC50,[30],7.06 nM
same,Cmax,[31],1.61 µg/mL
same,Activity,NCI-H1975 [32],58.1%
same,IC50,[33],4 nM
same,Activity,NCI-H1975 [34],22.23%
same,Ratio IC50,[35],> 1000
same,viability at 0.05 µM,NCI-H1975 [36],11.3%
same,Activity,NCI-H1975 [37],18.71%
